This note sets out measurements from ChEMBL document CHEMBL5034011, “Discovery and Optimization of a 4-Aminopiperidine Scaffold for Inhibition of Hepatitis C Virus Assembly” (J Med Chem, 2021).

The structures appear in SMILES notation. In brackets after ≈: the same amount, converted by molar mass.

The nature of data set [1]: Kinetic aqueous solubility of compound by pION uSOL method at pH 7.4. Conditions: buffer.
Data set [2] in a line: Cmax in CD-1 mouse liver at 10 mg/kg. The class given is ADME, organism-based. On the set-up: dose 10 mg/kg.
A short description of data set [3]: Permeability of the compound by PAMPA method. The class given is ADME. As to conditions: for Papp: read-out: permeability.
A short description of data set [4]: AUClast in CD-1 mouse brain at 10 mg/kg. The class given is ADME, organism-based. Details: time 0 - last, dose 10 mg/kg.
The nature of data set [5]: Tmax in CD-1 mouse brain at 10 mg/kg. The class given is ADME, organism-based.
Data set [6] can be described thus: Tmax in CD-1 mouse plasma at 10 mg/kg. The class given is ADME, organism-based.
Data set [7] can be described thus: Cmax in CD-1 mouse plasma at 10 mg/kg. The class given is ADME, organism-based. On the set-up: dose 10 mg/kg.
The nature of data set [8]: AUClast in CD-1 mouse liver at 10 mg/kg. The class given is ADME, organism-based. Details: time 0 - last, dose 10 mg/kg.
Data set [9] is described as follows: Tmax in CD-1 mouse liver at 10 mg/kg. The class given is ADME, organism-based.
Data set [10] is described as follows: Ratio of AUClast in liver to plasma in CD-1 mouse at 10 mg/kg. The class given is ADME, organism-based.
The nature of data set [11]: AUClast in CD-1 mouse plasma at 10 mg/kg. The class given is ADME, organism-based. Details: time 0 - last, dose 10 mg/kg.
Data set [12] can be described thus: Ratio of AUClast in brain to plasma in CD-1 mouse at 10 mg/kg. The class given is ADME, organism-based.
Data set [13] is described as follows: Cmax in CD-1 mouse liver at 1 mg/kg. The class given is ADME, organism-based. On the set-up: dose 1 mg/kg.
Data set [14] in a line: AUClast in CD-1 mouse plasma at 1 mg/kg. The class given is ADME, organism-based. On the set-up: time 0 - last, dose 1 mg/kg.
Data set [15] can be described thus: Cmax in CD-1 mouse brain at 1 mg/kg. The class given is ADME, organism-based. Details: dose 1 mg/kg.
A short description of data set [16]: AUClast in CD-1 mouse brain at 1 mg/kg. The class given is ADME, organism-based. On the set-up: time 0 - last, dose 1 mg/kg.
The nature of data set [17]: Tmax in CD-1 mouse brain at 1 mg/kg. The class given is ADME, organism-based.
Data set [18] can be described thus: AUClast in CD-1 mouse liver at 1 mg/kg. The class given is ADME, organism-based. Details: time 0 - last, dose 1 mg/kg.
Data set [19] is described as follows: Ratio of AUClast in brain to plasma in CD-1 mouse at 1 mg/kg. The class given is ADME, organism-based.
The nature of data set [20]: Ratio of AUClast in liver to plasma in CD-1 mouse at 1 mg/kg. The class given is ADME, organism-based.
Data set [21] can be described thus: Tmax in CD-1 mouse liver at 1 mg/kg. The class given is ADME, organism-based.
Data set [22] is described as follows: Tmax in CD-1 mouse plasma at 1 mg/kg. The class given is ADME, organism-based.

`Clc1cc(CN(C2CCNCC2)C2CC(c3ccc(Br)cc3)C2)ccc1Br` (stereo not drawn) had a solubility (kinetic) in [1] of 3.32 µg/mL (≈ 6.48 µM). In addition, the Cmax was 57400 ng/mL in data set [2] and 759 ng/mL in [7]. For the same compound, the Papp in data set [3] was found to be 32 ×10⁻⁶ cm/s. The AUC(0-t) in [4] is 56800 ng·h/mL; in [8] it was 793000 ng·h/mL; in data set [11] it was 10500 ng·h/mL. Further, the Tmax in [5] was found to be 24 h; in [6], 0.5 h; in data set [9], 1 h. Further, the Kp came to 76 in data set [10] and 54 in data set [12].
The compound `Cc1ccc(C2CC(N(Cc3ccc(Br)c(Cl)c3)C3CCCNC3)C2)cc1` (stereo not drawn) yielded a kinetic solubility in data set [1] of 13.3 µg/mL (≈ 29.7 µM).
Same read-out and setting: the value for `Cc1ccc([C@H]2C[C@@H](N(Cc3ccc(Br)c(Cl)c3)C3CCNCC3)C2)cc1` was 9.71 µg/mL (≈ 21.7 µM).
In [1], `CC(=O)N1CCC(N(Cc2ccc(Br)c(Cl)c2)C2CC(c3ccc(C)cc3)C2)CC1` (stereo not drawn) showed a kinetic solubility of less than 1 µg/mL. The permeability in [3] is 1909 10^-6 cm/s.
`Clc1cc(CN(C2CCNCC2)C2CC(c3cccc(Br)c3)C2)ccc1Br` (stereo not drawn): the solubility (kinetic) in data set [1] was determined as 3.94 µg/mL (≈ 7.68 µM). The Papp in [3] amounted to 14 ×10⁻⁶ cm/s.
Take `Cc1ccc(C2CC(N(Cc3ccc(Br)c(Cl)c3)C3CCC(N)CC3)C2)cc1` (stereo not drawn): the Papp in data set [3] worked out at 818 ×10⁻⁶ cm/s.
For `Cc1ccc(C2CC(N(Cc3ccc(Br)c(Cl)c3)C3CC4CNC3C4)C2)cc1` (stereo not drawn), the solubility (kinetic) in data set [1] is 7.26 µg/mL (≈ 15.8 µM). The Papp in data set [3] was 123 ×10⁻⁶ cm/s.
On to `Fc1ccc(C2CC(N(Cc3ccc(Br)c(Cl)c3)C3CCNCC3)C2)cc1` (stereo not drawn), for which the Papp in data set [3] was 398 ×10⁻⁶ cm/s.
Take `Cc1ccc(C2CC(N(Cc3ccc(Br)c(Cl)c3)C3CCOCC3)C2)cc1` (stereo not drawn): in data set [1], the kinetic solubility is less than 1 µg/mL. In addition, the Papp in data set [3] was less than 6.4 ×10⁻⁶ cm/s.
Consider `Cc1ccc(C2CC(N(Cc3ccc(Br)c(Cl)c3)C3CCN(C(C)C)CC3)C2)cc1` (stereo not drawn), for which the solubility (kinetic) in data set [1] worked out at 15.4 µg/mL (≈ 31.4 µM). Further, the Papp in data set [3] was less than 23.1 ×10⁻⁶ cm/s.
Consider `Cc1ccc(C2CC(N(Cc3ccc(Br)c(Cl)c3)C3CCNCC3)C2)cc1` (stereo not drawn), for which the solubility (kinetic) in [1] was found to be 18.2 µg/mL (≈ 40.6 µM). Further, the Papp in data set [3] stood at 806 ×10⁻⁶ cm/s.
As to `Cc1ccc(C2CC(N(Cc3ccc(Br)c(Cl)c3)C3CC4CCC(C3)N4)C2)cc1` (stereo not drawn), the solubility (kinetic) in [1] came to 11.1 µg/mL (≈ 23.4 µM).
As for `Cc1ccc(C2CC(N(Cc3ccc(Br)c(Cl)c3)C3CCN(C)CC3)C2)cc1` (stereo not drawn), the solubility (kinetic) in data set [1] turned out to be 22.9 µg/mL (≈ 49.7 µM). In data set [3], the Papp turned out to be 274 ×10⁻⁶ cm/s.
In data set [1], `Cc1ccc(C2CC(N(Cc3ccc(Br)c(Cl)c3)C3C4CCC3CNC4)C2)cc1` (stereo not drawn) registered a kinetic solubility of less than 1 µg/mL.
In [1], `Cc1ccc(C2CC(N(Cc3ccc(Br)c(Cl)c3)C3CCNC3)C2)cc1` (stereo not drawn) had a solubility (kinetic) of 23.2 µg/mL (≈ 53.5 µM).
`Cc1ccc([C@H]2C[C@H](N(Cc3ccc(Br)c(Cl)c3)C3CCNCC3)C2)cc1`: the Cmax in data set [13] was 1850 ng/mL; in data set [15] it was 153 ng/mL. Moreover, the figures for the AUC(0-t) in data set [14], in [16] and in data set [18] were 275 ng·h/mL, 3000 ng·h/mL and 9570 ng·h/mL, respectively. Moreover, the solubility (kinetic) in data set [1] is 1.09 µg/mL (≈ 2.43 µM). Moreover, the figures for the Tmax in data set [17], in [21] and in data set [22] were 1.5 h, 2 h and 0.167 h, respectively. Also, the results for the Kp in data set [19] and in data set [20] were 11 and 35, respectively.
Regarding `Clc1cccc(C2CC(N(Cc3ccc(Br)c(Cl)c3)C3CCNCC3)C2)c1` (stereo not drawn), the solubility (kinetic) in data set [1] came out at 4 µg/mL (≈ 8.54 µM).
Take `Cc1cccc(C2CC(N(Cc3ccc(Br)c(Cl)c3)C3CCNCC3)C2)c1` (stereo not drawn): the Papp in data set [3] is 265 ×10⁻⁶ cm/s.
For the compound `Cc1ccc(C2CC(N(Cc3ccc(Br)c(Cl)c3)C3CCCNCC3)C2)cc1` (stereo not drawn), the solubility (kinetic) in [1] worked out at 25.6 µg/mL (≈ 55.5 µM). Besides, the Papp in data set [3] was 666 ×10⁻⁶ cm/s.
